Assay results: US20050059585A1, “Methionine aminopeptidase-2 inhibitors and methods of use thereof” (Praecis Pharmaceuticals Inc., priority 2000, published 2005)
Read-outs that look alike come from different tables or passages of the source. Square brackets hold non-standard residues; d marks the D form. Peptide text beside a SMILES is read from it. * marks the point of attachment. X2 = CO[C@@H]1[C@H](OC(=O)*)CC[C@]2(CO2)[C@H]1[C@@]1(C)O[C@@H]1CC=C(C)C; X3 = CO[C@@H]1[C@H](OC(=O)*)CC[C@]2(CO2)[C@H]1[C@@]1(C)O[C@@H]1CCC(C)C; Sar = CNCC(=O)O

How the values were obtained:
[1] = system: human umbilical vein endothelial cells (HUVEC); experiment: human endothelial cell growth assay (Huvec assay); type: cell-based
Method: For the human endothelial cell growth assay, human umbilical vein endothelial cells (HUVEC) were maintained in Clonetics endothelial growth medium (EGM) in a 37° C. humidified incubator. Cells were detached with trypsin and pelleted by centrifugation at 300×g for 5 minutes at room temperature. HUVEC were added to 96-well plates at 5,000 cells/well. After incubating for 6 hours, the medium was replaced with 0.2 ml fresh EGM supplemented with 0.5 nM bFGF and the desired concentration of test angiogenesis inhibitor compound. Test angiogenesis inhibitor compounds were initially dissolved in ethanol at stock concentrations of either 10 mM or 0.1 mM, and subsequently diluted in EGM to obtain concentrations from […] to 10 μM. After 48 hours at 37° C., the medium was replaced with fresh bFGF-supplemented EGM and test angiogenesis inhibitor compound. Following incubation for an additional 48 hours at 37° C. MTT (3-[4,5-dimethylthiazol-2-yl]-2,5-diphenyl-tetrazolium bromide) was added to 1 mg/ml. After 2-4 hours at 37° C. the medium was replaced with 0.1 ml/well isopropanol. The plates were placed on a shaker for 15 minutes at room temperature and analyzed in a Labsystems Multiskan plate spectrophotometer at an optical density of 570 nm.

[2] = system: bovine aortic endothelial cell; experiment: bovine aortic endothelial cell growth assay (Baec assay); type: cell-based
Method: The angiogenesis inhibitor compounds of the invention were tested for their ability to modulate human endothelial cell growth and for their ability to modulate the activity of MetAP2. The MetAP2 enzyme assay was performed essentially as described in Turk, B. et al. (1999) Chem. & Bio. 6: 823-833, the entire contents of which are incorporated herein by reference. The bovine aortic endothelial cell growth assay (Baec assay) was performed essentially as described in Turk, B. et al. (supra), the entire contents of which are incorporated herein by reference.

MetAP2 = biological target: T1, MetAP2 (Homo sapiens, UniProt P50579); experiment: MetAP2 enzyme assay; type: biochemical
T1 construct: made in house; host or cells: insect cells
Method: Finally, the ability of the angiogenesis inhibitor compounds of the invention to modulate the activity of MetAP2 may be tested as follows.. Recombinant human MetAP2 may be expressed and purified from insect cells as described in Li and Chang, (1996) Biochem. Biophys. Res. Commun. 227:152-159. Various amounts of angiogenesis inhibitor compound is then added to buffer H (10 mM Hepes, pH 7.35, 100 mM KCl, 10% glycerol, and […]) containing lnM purified recombinant human MetAP2 and incubated at 37° C. for 30 minutes. To start the enzymatic reaction a peptide containing a methionine residue, e.g., Met-Gly-Met, is added to the reaction mixture (to a concentration of 1 mM). Released methionine is subsequently quantified at different time points (e.g., at 0, 2, 3, and 5 minutes) using the method of Zou et al. (1995) Mol. Gen Genetics 246:247-253).
The angiogenesis inhibitor compounds of the invention were tested for their ability to modulate human endothelial cell growth and for their ability to modulate the activity of MetAP2. The MetAP2 enzyme assay was performed essentially as described in Turk, B. et al. (1999) Chem. & Bio. 6: 823-833, the entire contents of which are incorporated herein by reference. […]

[3] = Homo sapiens, HUVEC, read-out: IC50 (pM), Huvec Assay
[4] = Bos taurus, BAEC, read-out: IC50 (pM), Baec Assay

T1 sequence (P50579 whole entry): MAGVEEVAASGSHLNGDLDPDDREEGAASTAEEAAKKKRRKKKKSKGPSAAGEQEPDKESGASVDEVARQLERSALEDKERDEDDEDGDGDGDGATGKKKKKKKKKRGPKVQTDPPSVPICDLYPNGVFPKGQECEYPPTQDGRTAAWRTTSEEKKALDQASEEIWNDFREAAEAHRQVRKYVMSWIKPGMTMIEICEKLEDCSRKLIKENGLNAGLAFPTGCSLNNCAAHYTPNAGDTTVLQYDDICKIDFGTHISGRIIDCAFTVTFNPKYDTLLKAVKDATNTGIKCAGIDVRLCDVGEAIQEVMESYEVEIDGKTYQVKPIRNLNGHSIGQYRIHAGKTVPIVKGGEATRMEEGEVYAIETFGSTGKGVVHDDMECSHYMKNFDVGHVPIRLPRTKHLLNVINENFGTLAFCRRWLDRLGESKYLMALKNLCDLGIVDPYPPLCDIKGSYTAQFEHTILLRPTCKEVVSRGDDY

SMILES | IC50 [2, 4] [pM] | IC50 ([1]; read-out: IC50, Huvec Assay) [pM] | other results
COC(=O)[C@H](NC(=O)O[C@@H]1CC[C@]2(CO2)[C@@H]([C@@]2(C)O[C@@H]2CC=C(C)C)[C@@H]1OC)c1ccccc1 [Example 4, {(3R, 4S, 5S, 6R)-5-Methoxy-4-[(2R, 3R )-2-methyl-3-(3-methyl-but-2-enyl)-oxiranyl]-1-oxa-spiro[2.5]oct-6-yloxycarbonylamino}-phenyl-acetic acid methyl ester] | 35 |  | IC50 [1, 3]: 36 pM
CO[C@@H]1[C@H](OC(=O)N[C@@H](C(N)=O)C(C)C)CC[C@]2(CO2)[C@H]1[C@@]1(C)O[C@@H]1CCC(C)C [Example 6, (1-Carbamoyl-2-methyl-propyl)-carbamic acid-(3R, 4S, 5S, 6R )-5-methoxy-4-[(2R, 3R)-2-methyl-3-(3-methyl-butyl)-oxiranyl]-1-oxa-spiro[2.5]oct-6-yl ester] | 220 |  | 
COC(=O)[C@H](NC(=O)O[C@@H]1CC[C@]2(CO2)[C@@H]([C@@]2(C)O[C@@H]2CC=C(C)C)[C@@H]1OC)C(C)(C)C [Example 8, 2-{(3R, 4S, 5S, 6R )-5-Methoxy-4-[(2R, 3R)-2-methyl-3-(3-methyl-but-2-enyl)-oxiranyl]-1-oxa-spiro[2.5]oct-6-yloxycarbonylamino}-3,3-dimethyl-butyric acid methyl ester] | 313 |  | 
COC(=O)[C@H](NC(=O)O[C@@H]1CC[C@]2(CO2)[C@@H]([C@@]2(C)O[C@@H]2CC=C(C)C)[C@@H]1OC)C1CCCCC1 [Example 9, Cyclohexyl-2-{(3R, 4S, 5S, 6R )-5-Methoxy-4-[(2R, 3R)-2-methyl-3-(3-methyl-but-2-enyl)-oxiranyl]-1-oxa-spiro[2.5]oct-6-yloxycarbonylamino}-acetic acid methyl ester] | 165 |  | 
CCC(C)C(NC(=O)O[C@@H]1CC[C@]2(CO2)[C@@H]([C@@]2(C)O[C@@H]2CC=C(C)C)[C@@H]1OC)C(=O)OC (some centres unmarked) [Example 10] | 179 |  | 
CO[C@@H]1[C@H](OC(=O)N[C@@H](C(=O)N[C@@H](CO)C(N)=O)C(C)C)CC[C@]2(CO2)[C@H]1[C@@]1(C)O[C@@H]1CC=C(C)C [Example 11] |  |  | IC50 ([2]; Bos taurus, BAEC, read-out: IC50, Baec Assay): > 100000 pM
CO[C@@H]1[C@H](OC(=O)NCC(=O)N[C@@H](CCCNC(=N)N)C(=O)NC[C@@H](O)N[C@@H](CC(=O)O)C(=O)N[C@@H](CO)C(=O)N2CCCC2C(N)=O)CC[C@]2(CO2)[C@H]1[C@@]1(C)O[C@@H]1CC=C(C)C (some centres unmarked) [Example 13] |  | > 1e+07 | IC50 (MetAP2): 2.9 nM
CO[C@@H]1[C@H](OC(=O)NCC(=O)N[C@@H](CCCNC(=N)N)C(=O)NCC(=O)N[C@@H](CC(=O)O)C(N)=O)CC[C@]2(CO2)[C@H]1[C@@]1(C)O[C@@H]1CCC(C)C [Example 15] (X3-GRGD-NH2) |  | > 1e+07 | 
CO[C@@H]1[C@H](OC(=O)NCC(=O)N2CCC[C@H]2C(=O)N[C@@H](CC(C)C)C(=O)N(C)CC(=O)O)CC[C@]2(CO2)[C@H]1[C@@]1(C)O[C@@H]1CC=C(C)C [Example 18, N-Carbamoyl (ID#26) (3R, 4S, 5S, 6R) 5-methoxy-4-[(2R,3R)2-methyl-3-(3methyl-but-2-enyl)-oxiranyl]-1-oxa-spiro[2.5]oct-6-yl ester] (X2-GPL[Sar]-OH) |  | > 100000 | 
CO[C@@H]1[C@H](OC(=O)NCC(=O)N2CCC[C@H]2C(=O)N[C@@H](CC(C)C)C(=O)NCC(=O)O)CC[C@]2(CO2)[C@H]1[C@@]1(C)O[C@@H]1CC=C(C)C [Example 19, N-Carbamoyl (ID#27) (3R, 4S, 5S, 6R) 5-methoxy-4-[(2R,3R)2-methyl-3-(3-methyl-but-2-enyl)-oxiranyl]-1-oxa-spiro [2.5]oct-6-yl ester] (X2-GPLG-OH) |  | > 100000 | IC50 ([2]; read-out: IC50, Baec Assay): > 100000 pM
CO[C@@H]1[C@H](OC(=O)N[C@@H](C(=O)O)C(C)C)CC[C@]2(CO2)[C@H]1[C@@]1(C)O[C@@H]1CC=C(C)C [Example 24, 2-{(3R, 4S, 5S, 6R)-5-Methoxy-4-[(2R, 3R)-2-methyl-3-(3-methyl-but-2-enyl)-oxiranyl]-1-oxa-spiro[2.5]oct-6-yloxycarbonylamino}-3-methyl-butyric acid] |  |  | IC50 [1, 3]: 5440 pM
